Laboratory results as given in ChEMBL document CHEMBL1201862, “PubChem BioAssay data set” (2004).
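Values below derive from 48-hour exposures of cells grown in 96-well plates, with endpoints linearly interpolated between the two concentrations bracketing the appropriate inhibition level. GI50 marks 50% less growth.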 The source made the active and inactive calls. No stated cut-off is given here; in the data, active = GI50 up to about 1.1 µM and inactive = higher.

What was measured:
Assay in all cases: NCI tumour cell line growth inhibition, 48 h
UO-31 = tested on: UO-31
OVCAR-8 = tested on: OVCAR-8
RPMI-8226 = tested on: RPMI-8226
SW-620 = tested on: SW-620
SF-268 = tested on: SF-268
OVCAR-4 = tested on: OVCAR-4
SF-539 = tested on: SF-539
K562 = tested on: K562
SNB-75 = tested on: SNB-75
NCI-H226 = tested on: NCI-H226
MOLT-4 = tested on: MOLT-4
HL-60 = tested on: HL-60
SK-OV-3 = tested on: SK-OV-3
HOP-62 = tested on: HOP-62
SK-MEL-2 = tested on: SK-MEL-2
TK-10 = tested on: TK-10

Row | SMILES | GI50 (UO-31) | GI50 (OVCAR-8) | GI50 (RPMI-8226) | GI50 (SW-620) | GI50 (SF-268) | GI50 (OVCAR-4) | GI50 (SF-539) | GI50 (K562) | GI50 (SNB-75) | GI50 (NCI-H226) | GI50 (MOLT-4) | GI50 (HL-60) | GI50 (SK-OV-3) | GI50 (HOP-62) | GI50 (SK-MEL-2) | GI50 (TK-10)
1 | CCc1cccc(C)c1NC(=S)NC(=O)c1ccccc1C(=O)NC(=S)Nc1c(C)cccc1CC | > 100 µM (inactive) | 95.1 µM (inactive) | 60 µM (inactive) | 75.3 µM (inactive) | > 100 µM (inactive) | 69.3 µM (inactive) | > 100 µM (inactive) | 38.9 µM (inactive) | > 100 µM (inactive) | 50.4 µM (inactive) | 53.7 µM (inactive) | 40.6 µM (inactive) | > 100 µM (inactive) | > 100 µM (inactive) | > 100 µM (inactive) | > 100 µM (inactive)
2 | CC(=O)Nc1ccc(C2=N/C(=C\c3ccc(Cl)cc3)C(=O)O2)cc1 | 26.4 µM (inactive) | 32.1 µM (inactive) | 40.2 µM (inactive) | 8.91 µM (inactive) | 34.3 µM (inactive) | 65 µM (inactive) | > 100 µM (inactive) | 19.5 µM (inactive) | 40.4 µM (inactive) | > 100 µM (inactive) | 20.7 µM (inactive) | 30.3 µM (inactive) | 30.7 µM (inactive) | > 100 µM (inactive) | > 100 µM (inactive) | > 100 µM (inactive)
3 | Cc1cccc(C(C)(C)C)c1NC(=O)CCl | > 100 µM (inactive) | > 100 µM (inactive) | – | > 100 µM (inactive) | > 100 µM (inactive) | > 100 µM (inactive) | > 100 µM (inactive) | > 100 µM (inactive) | > 100 µM (inactive) | > 100 µM (inactive) | > 100 µM (inactive) | > 100 µM (inactive) | > 100 µM (inactive) | > 100 µM (inactive) | > 100 µM (inactive) | > 100 µM (inactive)
4 | CN(C)CCS/C(=N\c1ccccc1)N1CCCCC1 | 20.3 µM (inactive) | 17.5 µM (inactive) | 22.3 µM (inactive) | 17.8 µM (inactive) | 18.4 µM (inactive) | 19.1 µM (inactive) | 20.2 µM (inactive) | 28.4 µM (inactive) | 21.8 µM (inactive) | 7.41 µM (inactive) | 19 µM (inactive) | 11.4 µM (inactive) | 75.7 µM (inactive) | > 100 µM (inactive) | 16.5 µM (inactive) | 18 µM (inactive)
5 | CSc1cc(C(C)(C)C)ccc1C(O)c1ccc(C(C)(C)C)cc1SC | 6.37 µM (inactive) | 11.4 µM (inactive) | – | 11.3 µM (inactive) | 13.3 µM (inactive) | 10.9 µM (inactive) | 16 µM (inactive) | 7.14 µM (inactive) | 12.8 µM (inactive) | 12.9 µM (inactive) | 3.35 µM (inactive) | 4.91 µM (inactive) | 17.5 µM (inactive) | 13.5 µM (inactive) | 15.1 µM (inactive) | 15.2 µM (inactive)
6 | NC(=O)NCc1c(C(N)=O)ncn1Cc1ccccc1 | – | > 100 µM (inactive) | > 100 µM (inactive) | > 100 µM (inactive) | – | > 100 µM (inactive) | > 100 µM (inactive) | > 100 µM (inactive) | > 100 µM (inactive) | – | > 100 µM (inactive) | > 100 µM (inactive) | > 100 µM (inactive) | > 100 µM (inactive) | – | > 100 µM (inactive)
7 | Cn1c(=O)c(C(c2ccccc2)c2c(O)c3ccccc3n(C)c2=O)c(O)c2ccccc21 | > 100 µM (inactive) | > 100 µM (inactive) | > 100 µM (inactive) | > 100 µM (inactive) | > 100 µM (inactive) | 53.6 µM (inactive) | > 100 µM (inactive) | > 100 µM (inactive) | 38.1 µM (inactive) | 0.0283 µM (active) | 45.3 µM (inactive) | 32.4 µM (inactive) | > 100 µM (inactive) | – | > 100 µM (inactive) | > 100 µM (inactive)
8 | Cc1ccc(/C=C/C(=O)C(C)C)cc1 | 54.1 µM (inactive) | 96.8 µM (inactive) | 27.9 µM (inactive) | 47.5 µM (inactive) | > 100 µM (inactive) | > 100 µM (inactive) | – | 31.3 µM (inactive) | 35.2 µM (inactive) | – | 30.2 µM (inactive) | – | 74.3 µM (inactive) | – | 36.3 µM (inactive) | > 100 µM (inactive)
9 | CCOC(=O)c1cc(C(=O)O)c(=O)n2c1[nH]c1ccccc12 | 23.9 µM (inactive) | > 100 µM (inactive) | 46.3 µM (inactive) | > 100 µM (inactive) | 61 µM (inactive) | > 100 µM (inactive) | 36.4 µM (inactive) | > 100 µM (inactive) | 31.8 µM (inactive) | – | > 100 µM (inactive) | > 100 µM (inactive) | 78.7 µM (inactive) | > 100 µM (inactive) | > 100 µM (inactive) | > 100 µM (inactive)
10 | Cc1cccc2cc3cccc(C(=O)NCCN(C)C)c3nc12 | 0.083 µM (active) | 0.0925 µM (active) | – | 0.0394 µM (active) | 0.296 µM (active) | 0.27 µM (active) | 0.129 µM (active) | 0.203 µM (active) | 0.235 µM (active) | 0.0638 µM (active) | < 0.01 µM (active) | 0.028 µM (active) | 0.138 µM (active) | 0.0745 µM (active) | 0.579 µM (active) | 0.317 µM (active)
11 | CC(C)CCCC(C)[C@H]1CCC2[C@H]3C(CC[C@@]21C)[C@@]1(C)CCC=C[C@]12C[C@@H]2[C@@H]3O (some centres not stated) | > 100 µM (inactive) | > 100 µM (inactive) | > 100 µM (inactive) | > 100 µM (inactive) | > 100 µM (inactive) | > 100 µM (inactive) | > 100 µM (inactive) | – | > 100 µM (inactive) | > 100 µM (inactive) | > 100 µM (inactive) | > 100 µM (inactive) | > 100 µM (inactive) | > 100 µM (inactive) | – | > 100 µM (inactive)
12 | C/C(=N\NC(=S)N1CCC(C2CCN(C(=S)N/N=C(\C)c3ccccn3)CC2)CC1)c1ccccn1 | > 100 µM (inactive) | 46.7 µM (inactive) | > 100 µM (inactive) | > 100 µM (inactive) | > 100 µM (inactive) | > 100 µM (inactive) | 51.3 µM (inactive) | > 100 µM (inactive) | 28.2 µM (inactive) | 60.7 µM (inactive) | – | > 100 µM (inactive) | 38.4 µM (inactive) | > 100 µM (inactive) | – | 53.8 µM (inactive)
13 | CSC(=S)N(C)NC(=O)c1cccc(C(=O)NN(C)C(=S)SC)n1 | – | 21.8 µM (inactive) | 10.3 µM (inactive) | 32.7 µM (inactive) | 6.1 µM (inactive) | 10.3 µM (inactive) | 24.5 µM (inactive) | 15.6 µM (inactive) | 34.3 µM (inactive) | 25.9 µM (inactive) | 4.33 µM (inactive) | 5.7 µM (inactive) | – | 17.1 µM (inactive) | – | –
14 | COC(=O)C1=C(C)N(NC(=O)c2ccccc2)C(C)(O)C12CCOC2=O (configuration not stated) | > 100 µM (inactive) | > 100 µM (inactive) | > 100 µM (inactive) | > 100 µM (inactive) | > 100 µM (inactive) | > 100 µM (inactive) | > 100 µM (inactive) | > 100 µM (inactive) | – | > 100 µM (inactive) | > 100 µM (inactive) | > 100 µM (inactive) | > 100 µM (inactive) | > 100 µM (inactive) | 0.608 µM (active) | > 100 µM (inactive)
15 | CCOC(=O)Cc1c(Cc2[nH]c(C(=O)OCc3ccccc3)c(CC(=O)OCC)c2CC(=O)OCC)[nH]c(C(=O)OCc2ccccc2)c1CC(=O)OCC | 67.8 µM (inactive) | > 100 µM (inactive) | > 100 µM (inactive) | > 100 µM (inactive) | > 100 µM (inactive) | – | > 100 µM (inactive) | > 100 µM (inactive) | > 100 µM (inactive) | – | > 100 µM (inactive) | > 100 µM (inactive) | > 100 µM (inactive) | > 100 µM (inactive) | – | –
16 | COc1ccc(C(=O)C(c2ccc(OC)cc2)C2(O)C(=O)Nc3ccccc32)cc1 (configuration not stated) | > 100 µM (inactive) | – | > 100 µM (inactive) | > 100 µM (inactive) | > 100 µM (inactive) | – | > 100 µM (inactive) | > 100 µM (inactive) | 67.5 µM (inactive) | > 100 µM (inactive) | > 100 µM (inactive) | 98.6 µM (inactive) | > 100 µM (inactive) | – | > 100 µM (inactive) | > 100 µM (inactive)
17 | COC(=O)CC1CC2(C(=O)OC)c3[nH]c4ccccc4c3CCN2C1=O (configuration not stated) | > 100 µM (inactive) | > 100 µM (inactive) | – | > 100 µM (inactive) | > 100 µM (inactive) | > 100 µM (inactive) | > 100 µM (inactive) | > 100 µM (inactive) | > 100 µM (inactive) | > 100 µM (inactive) | > 100 µM (inactive) | > 100 µM (inactive) | > 100 µM (inactive) | > 100 µM (inactive) | > 100 µM (inactive) | > 100 µM (inactive)
18 | CS(=O)(=O)OC1CCC2(C#N)CCC1C2=O (configuration not stated) | > 100 µM (inactive) | > 100 µM (inactive) | 21.9 µM (inactive) | – | > 100 µM (inactive) | > 100 µM (inactive) | > 100 µM (inactive) | > 100 µM (inactive) | > 100 µM (inactive) | > 100 µM (inactive) | > 100 µM (inactive) | > 100 µM (inactive) | > 100 µM (inactive) | > 100 µM (inactive) | > 100 µM (inactive) | > 100 µM (inactive)
19 | CCc1cccc(C)c1NC(=O)C(=O)CC(=O)c1ccc(Cl)s1 | > 100 µM (inactive) | > 100 µM (inactive) | – | > 100 µM (inactive) | > 100 µM (inactive) | > 100 µM (inactive) | > 100 µM (inactive) | > 100 µM (inactive) | > 100 µM (inactive) | > 100 µM (inactive) | > 100 µM (inactive) | > 100 µM (inactive) | > 100 µM (inactive) | > 100 µM (inactive) | > 100 µM (inactive) | > 100 µM (inactive)
